In patent US6274715A, “Tricyclic erythromycin derivatives” (priority 1997, dated 2001):
Values after ≈ are worked out from the molar mass of the structure shown.

Key:
Type in all cases: cell-based
[1] = test system: STAPHYLOCOCCUS AUREUS ATCC 6538P; assay: In vitro antibacterial activity, MIC, BHI agar dilution; conditions: S. aureus ATCC 6538P, 35-37° C., 20 to 24 hours, unit assumed
[2] = test system: STAPHYLOCOCCUS AUREUS A5177; assay: as above; conditions: S. aureus A5177, unit assumed
[3] = test system: STAPHYLOCOCCUS AUREUS A-5278; assay: as above; conditions: S. aureus A-5278, unit assumed
[4] = test system: STAPHYLOCOCCUS AUREUS CMX 642A; assay: as above; conditions: S. aureus CMX 642A, unit assumed
[5] = test system: STAPHYLOCOCCUS AUREUS NCTC10649M; assay: as above; conditions: S. aureus NCTC10649M, unit assumed
[6] = test system: STAPHYLOCOCCUS AUREUS CMX 553; assay: as above; conditions: S. aureus CMX 553, unit assumed
[7] = test system: STAPHYLOCOCCUS AUREUS 1775; assay: as above; conditions: S. aureus 1775, unit assumed
[8] = test system: STAPHYLOCOCCUS EPIDERMIDIS 3519; conditions: S. epidermidis 3519; BHI agar; unit assumed
[9] = test system: EN[…] ATCC 8043; assay: In vitro antibacterial activity, MIC, BHI agar dilution; conditions: E. faecium ATCC 8043, unit assumed
Procedure, shortened: (§1)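 Twelve successive aqueous dilutions of compound in Brain Heart Infusion agar were inoculated with 1:100 culture dilutions (1:10 for slow growers such as Micrococcus, Streptococcus) by Steers replicator and incubated at 35-37° C for 20 to 24 hours. MIC was the lowest concentration giving no growth, slight haze or sparse colonies versus drug-free control.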

[10] = test system: M[…] ATCC 4698; assay: as above; conditions: M. luteus ATCC 4698, unit assumed
Procedure, shortened: as §1

[11] = test system: M[…] ATCC 9341; assay: as above; conditions: M. luteus ATCC 9341, unit assumed
Procedure, shortened: as §1

[12] = test system: STR[…] 508; assay: as above; conditions: S. agalactiae CMX 508, unit assumed
Procedure, shortened: as §1

[13] = test system: STREPTOCOCCUS BOVIS A-5169; assay: as above; conditions: S. bovis A-5169, unit assumed
[14] = test system: STREPTOCOCCUS PYOGENES EES61; assay: as above; conditions: S. pyogenes EES61, unit assumed
[15] = test system: STREPTOCOCCUS PYOGENES 930; assay: as above; conditions: S. pyogenes 930, unit assumed
[16] = test system: STREPTOCOCCUS PYOGENES PIU 2548; assay: as above; conditions: S. pyogenes PIU 2548, unit assumed
[17] = test system: ESCHERICHIA COLI JUHL; conditions: E. coli JUHL; BHI agar; unit assumed
[18] = test system: ESCHERICHIA COLI SS; assay: In vitro antibacterial activity, MIC, BHI agar dilution; conditions: E. coli SS, unit assumed
[19] = test system: ESCHERICHIA COLI DC-2; assay: as above; conditions: E. coli DC-2, unit assumed
[20] = test system: ESCHERICHIA COLI H560; assay: as above; conditions: E. coli H560, unit assumed
[21] = test system: ESCHERICHIA COLI KNK 437; conditions: E. coli KNK 437; BHI agar; unit assumed
[22] = test system: ENTEROBACTER AEROGENES ATCC 13048; assay: In vitro antibacterial activity, MIC, BHI agar dilution; conditions: E. aerogenes ATCC 13048, unit assumed
[23] = test system: PROVIDENCIA STUARTII CMX 640; conditions: P. stuartii CMX 640; BHI agar; unit assumed
[24] = test system: PSEUDOMONAS AERUGINOSA BMH10; assay: In vitro antibacterial activity, MIC, BHI agar dilution; conditions: P. aeruginosa BMH10, unit assumed
[25] = test system: PSEUDOMONAS AERUGINOSA 5007; assay: as above; conditions: P. aeruginosa 5007, unit assumed
[26] = test system: PSEUDOMONAS AERUGINOSA K799/WT; assay: as above; conditions: P. aeruginosa K799/WT, unit assumed
[27] = test system: PSEUDOMONAS AERUGINOSA K799/61; assay: as above; conditions: P. aeruginosa K799/61, unit assumed
[28] = test system: PSEUDOMONAS CEPACIA 296I; assay: as above; conditions: P. cepacia 296I, unit assumed
[29] = test system: ACINETOBACTER CALCOACETICUS CMX 669; assay: as above; conditions: A. calcoaceticus CMX 669, unit assumed
[30] = test system: PSEUDOMONAS AERUGINOSA DPHD-5263; assay: as above; conditions: P. aeruginosa DPHD-5263, unit assumed
[31] = test system: PSEUDOMONAS AERUGINOSA DPHD-2862; assay: as above; conditions: P. aeruginosa DPHD-2862, unit assumed
[32] = test system: CANDIDA ALBICANS CCH 442; assay: as above; conditions: C. albicans CCH 442, unit assumed
[33] = test system: MYCOBACTERIUM SMEGMATIS ATCC 114; assay: as above; conditions: M. smegmatis ATCC 114, unit assumed
[34] = test system: KLEBSIELLA PNEUMONIAE ATCC 8045; assay: as above; conditions: K. pneumoniae ATCC 8045, unit assumed

SMILES | MIC [1] [µg/mL] | MIC [2] [µg/mL] | MIC [3] [µg/mL] | MIC [4] [µg/mL] | MIC [5] [µg/mL] | MIC [6] [µg/mL] | MIC [7] [µg/mL] | MIC [8] [µg/mL] | MIC [9] [µg/mL] | MIC [10] [µg/mL] | MIC [11] [µg/mL] | MIC [12] [µg/mL] | MIC [13] [µg/mL] | MIC [14] [µg/mL] | MIC [15] [µg/mL] | MIC [16] [µg/mL] | MIC [18] [µg/mL] | MIC [19] [µg/mL] | MIC [20] [µg/mL] | MIC [21] [µg/mL] | further results
CC[C@H]1OC(=O)[C@H](C)C(=O)[C@H](C)[C@@H](O[C@@H]2O[C@H](C)C[C@H](N(C)C)[C@H]2O)[C@](C)(OC)C[C@@H](C)C2=N[C@H](COCc3cccnc3)CN3C(=O)O[C@@]1(C)[C@H]3[C@H]2C [Example 82] | 0.39 (≈ 0.514 µM) | 0.39 (≈ 0.514 µM) | > 100 | 0.39 (≈ 0.514 µM) | 0.39 (≈ 0.514 µM) | 0.39 (≈ 0.514 µM) | > 100 | 0.39 (≈ 0.514 µM) | 0.05 (≈ 0.0659 µM) | 0.39 (≈ 0.514 µM) | 0.05 (≈ 0.0659 µM) | 0.05 (≈ 0.0659 µM) | 0.05 (≈ 0.0659 µM) | 0.05 (≈ 0.0659 µM) | > 100 | 0.39 (≈ 0.514 µM) | 0.78 (≈ 1.03 µM) | > 100 | > 100 | > 100 | MIC [17]: > 100 µg/mL; MIC [22]: > 100 µg/mL; MIC [23]: > 100 µg/mL; MIC [24]: > 100 µg/mL; MIC [25]: > 100 µg/mL; MIC [26]: > 100 µg/mL; MIC [27]: 3.1 µg/mL (≈ 4.08 µM); MIC [28]: > 100 µg/mL; MIC [29]: > 100 µg/mL; MIC [30]: > 100 µg/mL; MIC [31]: > 100 µg/mL; MIC [32]: > 100 µg/mL; MIC [33]: 3.1 µg/mL (≈ 4.08 µM)
CC[C@H]1OC(=O)[C@H](C)C(=O)[C@H](C)[C@@H](O[C@@H]2O[C@H](C)C[C@H](N(C)C)[C@H]2O)[C@](C)(OC)C[C@@H](C)C2=NC3COCC3N3C(=O)O[C@@]1(C)[C@H]3[C@H]2C (stereo partly drawn) [Example 108] | 0.39 (≈ 0.574 µM) | 0.39 (≈ 0.574 µM) | > 100 | 0.78 (≈ 1.15 µM) | 0.78 (≈ 1.15 µM) | 0.78 (≈ 1.15 µM) | > 100 | 1.56 (≈ 2.29 µM) | 0.2 (≈ 0.294 µM) | 0.78 (≈ 1.15 µM) | 0.1 (≈ 0.147 µM) | 0.1 (≈ 0.147 µM) | 0.02 (≈ 0.0294 µM) | 0.1 (≈ 0.147 µM) | > 100 | 0.39 (≈ 0.574 µM) | 0.78 (≈ 1.15 µM) | > 100 | > 100 | > 100 | MIC [22]: > 100 µg/mL; MIC [34]: > 100 µg/mL; MIC [23]: > 100 µg/mL; MIC [24]: > 100 µg/mL; MIC [25]: > 100 µg/mL; MIC [26]: > 100 µg/mL; MIC [27]: 6.2 µg/mL (≈ 9.12 µM); MIC [28]: > 100 µg/mL; MIC [29]: 100 µg/mL (≈ 147 µM); MIC [30]: > 100 µg/mL; MIC [31]: > 100 µg/mL; MIC [32]: > 100 µg/mL; MIC [33]: 12.5 µg/mL (≈ 18.4 µM)
